Format in all cases: biochemical
The target of assay [1] is T1, porcine pancreatic PLA2 (Sus scrofa, UniProt P00592).
T1 construct: purchased Sigma
As to the kind of experiment: MHPLA2 assay: in vitro porcine pancreatic phospholipase A2, mixed micelle design, [s]=10 μm. As to conditions: for % Inh. / inhibition at 20 µg/mL: subs. con. 10; for inhibition at 50 µg/mL: dose 50 μ/ml. In a few lines:
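Compounds dried with 10 μM 1-stearyl-2-[3H]-arachidonyl-PC substrate in mixed micelles (0.1M tris-HCl pH 9.0, 10 mM CaCl2, 10 mM Na taurocholate). Reaction started by adding enzyme and run 15 min at 37°C, then stopped with TCA. Released [3H]-arachidonate separated by TLC or column and counted by scintillation.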

For assay [2], the target named is T1, porcine pancreatic PLA2. As to the kind of experiment: PLA2 assay: in vitro porcine pancreatic phospholipase A2, preincubation of drug+enzyme, substrate 2 nM. As to conditions: preincubation, subs. con. 2; for inhibition at 10 µg/mL: dose 10 μ/ml; for inhibition at 20 µg/mL: dose 20 μ/ml; for IC50: read-out: IC50 (converted). The method, boiled down: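 Porcine pancreatic PLA2 acting on 2 nM radiolabeled arachidonyl-phosphatidylcholine in mixed micelles (0.1 M Tris-HCl pH 9.0, 10 mM CaCl2, 10 mM Na taurocholate), 15 min at 37 °C with preincubation of drug and enzyme. Stopped with TCA; released 3H-arachidonate extracted, separated by TLC or column, counted by scintillation.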

Assay [3] addresses T1, porcine pancreatic PLA2. As to the kind of experiment: MPLA2 assay: in vitro porcine pancreatic phospholipase A2, mixed micelle design, substrate 2 nM. Particulars: for inhibition at 10 µg/mL: dose 10 μ/ml; for inhibition at 20 µg/mL: dose 20 μ/ml; for inhibition at 25 µg/mL: dose 25 μ/ml; for pIC50: subs. con. 2. Here is the method:
(§1) Phospholipase A2 activity was measured by a radiochemical assay in which labeled synthetic phosphatidylcholine substrate is converted by porcine pancreatic PLA2 to free radiolabeled arachidonate and lyso PC. Radiolabeled arachidonate is extracted from the reaction mixture and separated from unreacted substrate by column chromatography or TLC. Radioactivity (cpm) in samples is quantitated by liquid scintillation counting. Specific details are as follows:
(§2) Labeled substrate(1-stearyl-2-^3 H-arachidonylphosphatidylcholine; Amersham, sp. act. 84 (uCi/mmole, 0.025 to 0.2 uCi/assay tube and unlabeled substrates (Avanti), in sufficient quantity to give 20,000 cpm to 50,000 cpm and 10 μM to 1,000 μM final concentration/assay tube are dried under a stream of nitrogen. The PLA2 and mPLA2 assays utilized a […] substrate concentration. The mHPLA2 and HPLA2 assays (vida infra) utilized a 10 μM substrate concentration and the SmPLA2 assay utilized a substrate concentration ranging from 100 to 1000 μm. The substrate is then redissolved in 0.1M tris-HCl buffer, pH 9.0 containing 10 mM CaCl2 and 10 mM Na taurocholate detergent. The mixture is sonicated in a Kontes Sonifier to yield a homogeneous dispersion. The "mixed" micellar substrate is clear. An aliquot is reserved for a cpm count (total substrate). The total reaction volume is 500 μL; siliconized glassware or plasticware is used throughout. Enzyme (Sigma, sp. act.>690 U/mg protein and preferably 900 U/mg protein) is diluted 1:750 or 1:1000 in 0.1M tris-HCl buffer, pH 9.0 (without Ca^++ and detergent). Enzyme dilution depends on substrate concentration and required enzyme concentration.
(§3) The substrate in buffer is kept on ice until the reaction is started. The reaction is started by adding 10 μL of diluted enzyme solution to 490 μL of micellar substrate solution. Samples are incubated in a 37° C. water bath for 15 minutes with gentle mixing. The reaction is terminated by the addition of 100 μL of 1M fresh trichloroacetic acid (TCA) solution and chilling the tubes on ice for 30 minutes.
(§4) Samples (600 μL) are extracted with 3 ml CHCl3 /MeOH (2:1) for thin layer chromatography or in hexane/ether (9:1) for column chromatography. The phases are separated by gentle centrifugation at 700 rpm×5'. The organic phase is recovered.
(§5) Labeled arachidonate extracted with CHCl3 /MeOH is separated on silica gel G TLC plates (Analtech). Twenty μL of a 2 mg/ml internal standard solution of arachidonic acid (Sigma) is combined with 2-3 ml of the organic phase. The entire mixture is dried under nitrogen and redissolved in 50 μL of CHCl3 /MeOH (2:1). A 20 μL sample is counted in 10 ml of Beckman Redi-solv HP and spotted on silica gel G plates. The solvent system used to develop the plate is CHCl3 /MeOH/13.5N NH3 /H2 O (70:30:4:1). Plates are developed in a glass chamber for 1-11/2 hours, air dried, and the spots visualized in an iodine vapor chamber. Standards of phosphatidylcholine, lyso PC, and arachidonic acid (Sigma) are made as 2 mg/ml stocks in CHCl3 /MeOH (2:1) and spotted on plates. Spots corresponding to arachidonate and phospholipid are scraped and counted in 10 ml Beckman Redi-Solv HP scintillation fluid.
(§6) Samples are extracted with hexane/ether and the upper organic phase recovered. An aliquot is applied to a Silicar CC4 (Malincrodt) column. Columns are prepared using 1 ml of a 1:1 slurry of silicar CC4 in hexane/ether in a Pasteur pipet (approx. 2 cm height). Columns are rinsed with 500 μL of hexane/ether before adding the sample (300-600 μL) to the column. Columns are eluted with a total of 6 ml of hexane/ether. The 6 ml sample is counted in 10 ml of Beckman Redi-Solv HP scintillation fluid.
(§7) or the phospholipase A2 assay, compounds are prepared as 1 mg/ml stock solutions in MeOH and diluted appropriately in PBS. […]

Assay [4] addresses T1, porcine pancreatic PLA2. Briefly: SMPLA2 assay: in vitro porcine pancreatic phospholipase A2, mixed micelle design, substrate 100 to 1000 μm. Particulars: for inhibition at 10 µg/mL: dose 10 μ/ml; for inhibition at 25 µg/mL: dose 25 μ/ml; for inhibition at 50 µg/mL: dose 50 μ/ml. Here is the method:
as §1, §2, §3, §4, §5, §6, §7

Where [5] appears, read: dose 25 μ/ml, subs. con. 10, read-out: % Inh.
The mark [6] stands for this setting: subs. con. 2, read-out: % Inh. Avg.
Setting [7] is: dose 10 μ/ml, subs. con. 10, read-out: % Inh.

pIC50: −log10 of the molar value. Counter-ions that a name gives are not always drawn.

What is called IC50 is the concentration that inhibits the measured activity by half. As a reminder, the pIC50 is the IC50 on a negative log10 scale, so that one unit is a factor of ten.

T1 sequence (P00592 23-146): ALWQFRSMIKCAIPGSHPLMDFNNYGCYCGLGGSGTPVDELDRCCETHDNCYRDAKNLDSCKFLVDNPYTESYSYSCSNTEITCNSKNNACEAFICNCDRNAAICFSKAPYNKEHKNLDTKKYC

In the case of `CCCCCCCCCCCCCCCCOCC(COP(=O)([O-])OCC[N+](C)(C)C)CSCCCCCCCCCCCCCCCC` (centres unmarked) [7-[(Hexadecylthio)methyl]-4-hydroxy-N,N,N-trimethyl-3,5,9-trioxa-4-phosphapentacosan-1-aminium, hydroxide, inner salt, 4-oxide], the “% Inh.” value in assay [1] (dose 10 μ/ml) and in assay [1] (dose 20 μ/ml) was “STIM” each time. Moreover, the inhibition at 25 µg/mL in assay [1] (setting [5]) worked out at 81%; in assay [3] (subs. con. 2, read-out: % Inh.) it was 79%. Besides, the inhibition at 10 µg/mL is 26% in assay [2] (read-out: % Inh. Avg.) and 59% in assay [3] (subs. con. 2, read-out: % Inh.). In addition, the inhibition at 20 µg/mL in assay [2] (read-out: % Inh.) came out at 61%; in assay [3] (subs. con. 2, read-out: % Inh.) it was 69%. Further, the IC50 in assay [2] was 4.75 µM. Further, the pIC50 in assay [3] was 5.12.

For `CCCCCCCCCCCCCCCCOCC(COP(=O)([O-])OCC[N+](C)(C)C)CS(=O)(=O)CCCCCCCCCCCCCCCC` (centres unmarked) [7-[(Hexadecylsulfonyl)methyl]-4-hydroxy-N,N,N-trimethyl-3,5,9-trioxa-4-phosphapentacosan-1-aminium, hydroxide, inner salt, 4-oxide], the inhibition at 25 µg/mL in assay [1] (setting [5]) was 19%; in assay [3] (subs. con. 2, read-out: % Inh.), 80%; in assay [3] (setting [6]), 72%. Also, the inhibition at 10 µg/mL worked out at 9% in assay [2] (read-out: % Inh.) and 57% in assay [2] (read-out: % Inh. Avg.). The inhibition at 20 µg/mL in assay [2] (read-out: % Inh.) came out at 82%. In addition, the concentration for half-maximal inhibition (IC50) in assay [2] was 2.99 µM.

With `CCCCCCCCCCCCCCCCOCC(COP(=O)([O-])OCC[N+](C)(C)C)OC(=O)C(Br)CCCCCCCCCCCCCCCC` (centres unmarked) [10-Bromo-7-[(hexadecyloxy)methyl]-4-hydroxy-N,N,N-trimethyl-9-oxo-3,5,8-trioxa-4-phosphahexacosan-1-aminium, hydroxide, inner salt, 4-oxide], the inhibition at 10 µg/mL in assay [1] (dose 10 μ/ml, subs. con. 10, read-out: % Inh. Avg.) stood at 8%; in assay [4] (subs. con. 100) it was 8%; in assay [4] (subs. con. 500) it was 0%; in assay [4] (subs. con. 1000) it was 5%; in assay [3] (subs. con. 2, read-out: % Inh.), 82%. Also, the inhibition at 25 µg/mL came out at 10% in assay [1] (dose 25 μ/ml, subs. con. 10, read-out: % Inh. Avg.); 1% in assay [4] (subs. con. 100); 0% in assay [4] (subs. con. 500); 10% in assay [4] (subs. con. 1000). The inhibition at 50 µg/mL in assay [1] (subs. con. 10, read-out: % Inh.) worked out at 37%; in assay [1] (subs. con. 10, read-out: % Inh. Avg.), 137%; in assay [4] (subs. con. 100), 18%; in assay [4] (subs. con. 500) it was 8%; in assay [4] (subs. con. 1000), 6%. Also, the inhibition at 20 µg/mL in assay [3] (subs. con. 2, read-out: % Inh.) was 82%. In assay [3], the pIC50 was 5.74.

For `CCCCCCCCCCCCCCCCOCC(COP(=O)([O-])OCC[N+](C)(C)C)CC(=O)C(F)(F)CCCCCCCCCCCCCCCC` (centres unmarked) [3,5,9-Trioxa-4-phosphapentacosan-1-aminium, 7-(3,3-difluoro-2-oxononadecyl)-4-hydroxy-N,N,N-trimethyl-, hydroxide, inner salt, 4-oxide], the inhibition at 10 µg/mL in assay [1] (setting [7]) came to 0%; in assay [2] (read-out: % Inh.), 38%; in assay [3] (subs. con. 2, read-out: % Inh.), 88%. For the same molecule, the inhibition at 20 µg/mL was 9% in assay [1] (dose 20 μ/ml); 41% in assay [2] (read-out: % Inh.); 89% in assay [3] (subs. con. 2, read-out: % Inh.). The inhibition at 25 µg/mL was found to be 8% in assay [1] (setting [5]) and 80% in assay [3] (subs. con. 2, read-out: % Inh.).

On to `CCCCCCCCCCCCCCCCOCC(CC=NO)COP(=O)([O-])OCC[N+](C)(C)C` (centres unmarked) [4-Hydroxy-7-[2-(hydroxyimino)ethyl]-N,N,N-trimethyl-3,5,9-trioxa-4-phosphaoentacosan-1-aminium, hydroxide, inner salt, 4-oxide], for which the inhibition at 10 µg/mL in assay [1] (setting [7]) was 0%; in assay [2] (read-out: % Inh.), 56%; in assay [2] (read-out: % Inh. Avg.), 53%; in assay [3] (subs. con. 2, read-out: % Inh.), 19%. The inhibition at 20 µg/mL in assay [1] (dose 20 μ/ml) worked out at 8%; in assay [2] (read-out: % Inh.), 81%; in assay [3] (subs. con. 2, read-out: % Inh.), 57%. Besides, the inhibition at 25 µg/mL was 28% in assay [1] (setting [5]); 51% in assay [3] (subs. con. 2, read-out: % Inh.); 55% in assay [3] (setting [6]). The IC50 in assay [2] was 10.1 µM.

With `CCCCCCCCCCCCCCCCOCC(COP(=O)([O-])OCC[N+](C)(C)C)CC(O)C(F)(F)CCCCCCCCCCCCCCCC` (centres unmarked) [3,5.9-Trioxa-4-phosphapentacosan-1-aminium, 7-(3,3-difluoro-2-hydroxynonadecyl)-4-hydroxy-N,N,N-trimethyl-, hydroxide, inner salt, 4-oxide], the inhibition at 25 µg/mL in assay [1] (setting [5]) was determined as 11%; in assay [3] (subs. con. 2, read-out: % Inh.), 82%. The inhibition at 10 µg/mL in assay [2] (read-out: % Inh.) was determined as 45%. For the same molecule, the inhibition at 20 µg/mL in assay [2] (read-out: % Inh.) is 49%.

With `CCCCCCCCCCCCCCCCSCCCOP(=O)([O-])OCC[N+](C)(C)C` [3,5-Dioxa-9-thia-4-phosphapentacosan-1-aminium, 4-hydroxy-N,N,N-trimethyl-,hydroxide, inner salt, 4-oxide], the “% Inh.” value in assay [1] (dose 25 μ/ml) is “STIM”. Besides, the inhibition at 10 µg/mL in assay [2] (read-out: % Inh.) was 54%; in assay [2] (read-out: % Inh. Avg.), 4.5%; in assay [3] (subs. con. 2, read-out: % Inh.), 46%. Also, the inhibition at 20 µg/mL in assay [2] (read-out: % Inh.) came out at 64%; in assay [3] (subs. con. 2, read-out: % Inh.), 83%. In assay [2], the IC50 was 12.9 µM. Besides, the inhibition at 25 µg/mL worked out at 74% in assay [3] (subs. con. 2, read-out: % Inh.) and 80% in assay [3] (setting [6]). In assay [3], this molecule had a pIC50 of 4.80.

For `CCCCCCCCCCCCCCCCOCC(COP(=O)([O-])OCC[N+](C)(C)C)CB(O)O` (centres unmarked) [7-(Boronomethyl)-4-hydroxy-N,N,N-trimethyl-3,5,9-trioxa-4-phosphapentacosan-1-aminium, hydroxide, inner salt, 4-oxide], the inhibition at 25 µg/mL in assay [1] (setting [5]) is 9%. Besides, in assay [2] (read-out: % Inh.), the inhibition at 10 µg/mL was 57% and the inhibition at 20 µg/mL came out at 77%. In assay [2], the IC50 was 10.7 µM. The inhibition at 25 µg/mL in assay [3] (setting [6]) is 44%.

The values are drawn from patent US5208223A, “Phosphocholine derivative inhibitors of phospholipase A2” (American Cyanamid Company, priority 1992, dated 1993).
